Values after ≈ are worked out from the molar mass of the structure shown. Read-outs that look alike come from different tables or passages of the source.
What was measured:
[1] = tested on: glycine (soybean) hypocotyl section; test: Assay for cytokinin activity according to glycine (soybean) hypocotyl section growth test (callus weight); type: cell-based, Soybean (var.: Enrei); details: Miller's medium with 2,4-D, dark, 30°C, about one month
Experimental: Soybean seeds (var.: Enrei) were disinfected with antiformin containing 0.7% effective chlorine for 4 minutes and washed thrice with sterilized water.
Agar (15 ml, 1.6%) was put in a test tube 2.5 cm in diameter. A groove was cut by forceps on the surface of the agar and two soybean seeds treated as above were placed in this groove and kept in the dark at 30°C for 5 days.
In a glass tubular bottle 26 mm in inner diameter was put Miller's medium, to which a given concentration of the candidate compound, benzyladenine or zeatin and […] of 2,4-D were added. The central portion of hypocotyl budding out from the above seeds was cut off to give a section 1 mm thick. Four of the sections as one group were transplanted to the Miller's medium. This was placed in the dark at 30°C for about one month and then the weight of callus formed was measured. For untreated group, the Miller's medium containing 9 mg/l of 2,4-D was used.

[2] = tested on: pig weed (Amaranthus caudatus); test: Assay of cytokinin activity to promote synthesis of betacyanin by pig weed cotyledon sections; type: cell-based; details: 27°C, 20 hours, dark
Experimental: Two sheets of filter paper were put double in a plastic container (19 x 28 cm) and were wetted with 60 ml of distilled water. Seeds of pig weed were sown on the filter papers and were germinated by keeping them in the dark at 27°C for 3 days. Seedlings of uniform size were chosen and were cut at the upper part of the hypocotyl and the seed coats were removed. This cotyledon with hypocotyl of 3-4 mm in length was used for assay.
Two sheets of filter paper were put double in a glass tubular bottle 32 mm in inner diameter and 1 ml of 0.0065M potassium phosphate buffer solution (pH: 6.3) containing a given concentration of the candidate compound, benzyladenine or zeatin and 0.5 g/l of tyrosine was added therein and ten of the above cotyledon sections were arranged therein and kept at 27°C for 20 hours in the dark. These ten cotyledon sections were put in a test tube containing 3 ml of distilled water and betacyanin was extracted by repeating thrice freezing and thawing. Absorbance of the solution was measured and the amount of the dye was calculated by the difference between the absorbance at 542 nm and at 620 nm. For the untreated group, 0.0065M potassium phosphate buffer solution (pH: 6.3) containing 0.5 g/l of tyrosine was used.

leaf section of wheat = test: Activity on leaf section of wheat (senescence retardation, chlorophyll retention); type: cell-based, wheat [var.: Yukichabo (Triticum astivum)]; details: wheat leaf sections, 25°C, 4 days, dark
Experimental: Seeds of wheat [var.: Yukichabo (Triticum astivum)] were sown in vermiculite packed in a seed-bed box and were sprouted by keeping them at 28°C for 2 days in the dark. The seedlings wera grown at 25°C for 5 days under irradiation with light of 1500 Lx. When they grew to a length of 12 - 13 cm, a portion having a length of 1 cm was cut off from the leaf in the region 2 - 5 cm from the tip of the first true leaf. Five of the leaf sections as one group were floated with the upper surface of the leaf being uppermost on the surface of aqueous solution (2 ml) of a given concentration of the candidate compound or benzyladenine contained in a glass tubular bottle 32 mm in inner diameter. These were placed at 25°C for 4 days in the dark and thereafter, these leaf sections were put in a test tube containing 10 ml of 80% ethanol and this test tube was immersed in a water bath at 80°C for 20 minutes to extract chlorophyll. After cooling, 80% ethanol was added to make up to 10 ml and absorbance at 665 nm was measured. Senescence retardation was determined according to the degree of retention of chlorophyll. For the untreated group, water was used in place of the aqueous solution of candidate compound.

leaf of wheat = test: Absorption from the surface of the leaf of wheat and translocation (length of green portion); type: cell-based, wheat [var.: Yukichabo (Triticum astivum)]; details: for The length of the green portion (mm) (average in 10 leaves): 10 µl in 0.2% Tween 80 on centre of wheat leaf section, 25°C, 5 days, dark
Experimental: In the same manner as in the above Example 8 test (1), wheat seedlings were grown to a height of 12 - 13 cm and a portion was cut off from tle region 4 cm from the tip of the first true leaf and this leaf section was used for this test.
The bottom of a Petri dish 9 cm in diameter was covered with a sheet of circular filter paper which was wetted with 2.5 ml of distilled water. A slide glass was put thereon and ten of the leaf sections were arranged on this slide glass with the upper surface of the leaf being uppermost. On the center of the leaf sections was put 10 µl of the solution prepared by dissolving the candidate compound or benzyladenine in a 0.2% aqueous solution of Tween 80 at a given concentration. The Petri dish was covered and left at 25°C for 5 days in the dark. In the part where the candidate solution was absorbed and translocated around the position on which the solution was put, the length of the portion where chlorophyll was retained, namely, the length of the green portion was measured. […]

wheat shoots = test: Absorption from the base of wheat shoots and translocation (senescence retardation of leaf sections); type: cell-based, wheat [var.: Yukichabo (Triticum astivum)]; details: for The senescence retardation (%): 10 mg/l taken up from shoot base for 18 hours
Experimental: Wheat seedlings were grown to a height of 14-15 cm in the same manner as in the above Example 8 test (1) and the shoot was cut off at the base. These sections were used for the test.
A solution (10 ml) containing 10 mg/l of the candidate compound or benzyladenine was poured into a test tube 2.5 cm in diameter and five of the wheat shoots as one group were inserted in one test tube containing the candidate solution and left at 25°C for 18 hours under irradiation with light of 1500 Lx. Thereafter, each of the shoots was cut at 5-6 cm, 8-9 cm and 11-12 cm from the above cut end and five of the respective sections as one group were floated on the surface of distilled water (2 ml) in a glass tubular bottle 32 mm in inner diameter with the upper surface of the leaves being uppermost. These were left at 25°C for 3 days in the dark and thereafter, the leaf sections were put in a test tube containing 10 ml of 80% ethanol. This test tube was immersed in a water bath at 80°C for 20 minutes to extract chlorophyll. After cooling, 80% ethanol was added to make up to 10 ml and absorbance of the solution at 665 nm was measured. In the same manner as in the above Example 8 test (1), senescence retardation was obtained.

Water solubility = type: physicochemical
Experimental: Water solubility of adenine derivatives of the present invention and representative known cytokinin substances was measured and the results are shown in Table 7. […]

[3] = region of leaf section 5-6 (cm) from cut end
[4] = region of leaf section 8-9 (cm) from cut end
[5] = region of leaf section 11-12 cm from cut end

Row | SMILES | The weight of soybean callus formed ([1]; 0.001 mg/l) | The weight of soybean callus formed ([1]; 0.01 mg/l) | The weight of soybean callus formed ([1]; 0.1 mg/l) | The amount of betacyanin produced (difference between absorbance at 542 nm and 620 nm) ([2]; 0.001 mg/l) | The amount of betacyanin produced (difference between absorbance at 542 nm and 620 nm) ([2]; 0.01 mg/l) | The amount of betacyanin produced (difference between absorbance at 542 nm and 620 nm) ([2]; 0.1 mg/l) | The amount of betacyanin produced (difference between absorbance at 542 nm and 620 nm) ([2]; 1.0 mg/l) | The senescence retardation (%) (leaf section of wheat; 0.0001 mg/l) | The senescence retardation (%) (leaf section of wheat; 0.001 mg/l) | The senescence retardation (%) (leaf section of wheat; 0.01 mg/l) | The senescence retardation (%) (leaf section of wheat; 0.1 mg/l) | The senescence retardation (%) (leaf section of wheat; 1.0 mg/l) | The senescence retardation (%) (leaf section of wheat; 10 mg/l) | The length of the green portion (mm) (average in 10 leaves) (leaf of wheat; 0.1 mg/l) | The length of the green portion (mm) (average in 10 leaves) (leaf of wheat; 1.0 mg/l) | The length of the green portion (mm) (average in 10 leaves) (leaf of wheat; 10 mg/l) | The senescence retardation (%) (wheat shoots; [3]) | The senescence retardation (%) (wheat shoots; [4]) | The senescence retardation (%) (wheat shoots; [5]) | other results
1 | c1ccc(CNc2ncnc3nc[nH]c23)cc1 [Benzyladenine, 6-benzylaminopurine, reference compound] | 76 mg | 836 mg | 674 mg | 0.038 | 0.076 | 0.192 | 0.260 | 7% | 15% | 50% | 55% | 74% | 75% | 9.6 mm | 14.2 mm | 16.9 mm | 17% | 21% | 14% | solubility (Water solubility): 0.03 mg/mL (≈ 0.133 mM)
2 | CON(C)CCNc1ncnc2nc[nH]c12 [MAED, N⁶-[2-(N-methoxy-N-methylamino)ethyl]adenine] | 97 mg | 182 mg | 654 mg | 0.040 | 0.058 | 0.121 | 0.214 | 4% | 14% | 43% | 56% | 58% | 76% | 9.9 mm | 19.8 mm | 28.8 mm | 37% | 34% | 20% | The weight of soybean callus formed ([1]; 1.0 mg/l): 823 mg; The weight of soybean callus formed ([1]; 10 mg/l): 705 mg; green portion compared with benzyladenine (absorbability and translocation) (leaf of wheat; at the same concentration, result in words): expanded the green portion in more widely than benzyladenine; senescence retardation compared with benzyladenine (absorbability and translocation) (wheat shoots; all regions of the first true leaf of wheat, result in words): more pronounced effect of senescence retardation than benzyladenine in all regions; solubility (Water solubility; 20°C, read-out: Solubility (g/100 g H₂O) (20°C)): 99 mg/mL (≈ 445 mM)

From patent EP0390515A1, “Novel adenine derivatives and their use as agents for increasing crop yields” (MITSUBISHI GAS CHEMICAL COMPANY, INC., priority 1989, dated 1990)
